Species on record: Rattus norvegicus
Experiment: Anticarcinogenic activity in rat assessed as induction of tumors per day
Format: functional

**Q.** Which results are given for `Nc1nnc(-c2ccc([N+](=O)[O-])o2)s1`?
**A.** TD50: 3.12 µmol/kg; pTD50: 0.494

**Q.** For `O=[N+]([O-])c1cccc2cccnc12`, which TD50 is on record?
**A.** 54.836 µmol/kg

**Q.** What about the pTD50 of the same compound?
**A.** 1.739

**Q.** Which results are given for `O=[N+]([O-])c1ccc(-c2nc(N3CCOCC3)c3ccccc3n2)s1`?
**A.** TD50: 14.692 µmol/kg; pTD50: 1.167

**Q.** For `CC(=O)Nc1nc(-c2ccc([N+](=O)[O-])o2)cs1`, which TD50 is on record?
**A.** 28.63 µmol/kg

**Q.** And the pTD50?
**A.** 1.457

**Q.** What does the source list for `O=[N+]([O-])c1ccc(-c2nnc(O)o2)o1`?
**A.** TD50: 43.682 µmol/kg; pTD50: 1.64

**Q.** How did the TD50 turn out when `O=C1NC(c2ccc([N+](=O)[O-])s2)Nc2ccccc21` (stereo not drawn) was run?
**A.** 5.558 µmol/kg

**Q.** What about the pTD50 of the same compound?
**A.** 0.745

**Q.** `O=[N+]([O-])c1ccc(-c2cnc3ccccn23)o1` was tested. Which TD50 did it give?
**A.** 68.938 µmol/kg

**Q.** What about the pTD50 of the same compound?
**A.** 1.838

**Q.** With `CC(C)=NNc1nc(-c2ccc([N+](=O)[O-])o2)cs1` as the compound, how does the TD50 read?
**A.** 22.721 µmol/kg

**Q.** And the pTD50?
**A.** 1.356

**Q.** How did the TD50 turn out when `Nc1nc(-c2ccc([N+](=O)[O-])o2)cs1` was run?
**A.** 27.699 µmol/kg

**Q.** And the pTD50?
**A.** 1.442

**Q.** For `NC(=O)/C(=C\c1ccc([N+](=O)[O-])o1)c1ccco1`, which TD50 is on record?
**A.** 45.932 µmol/kg

**Q.** What about the pTD50 of the same compound?
**A.** 1.662

**Q.** Which results are given for `CC(=O)Nc1nc(NC(C)=O)nc(-c2ccc([N+](=O)[O-])o2)n1`?
**A.** TD50: 41.798 µmol/kg; pTD50: 1.621

**Q.** Which TD50 does the source give for `CC(C)(C)c1cc([N+](=O)[O-])cc([N+](=O)[O-])c1OS(C)(=O)=O` here?
**A.** 8.357 µmol/kg

**Q.** And the pTD50?
**A.** 0.922

**Q.** Which TD50 does the source give for `Cc1cc(C)nc(-c2ccc([N+](=O)[O-])o2)n1` here?
**A.** 11.907 µmol/kg

**Q.** And the pTD50?
**A.** 1.076

**Q.** What does the source list for `CC(=O)Nc1nnc(-c2ccc([N+](=O)[O-])o2)s1`?
**A.** TD50: 34.773 µmol/kg; pTD50: 1.541

**Q.** How did the TD50 turn out when `CC(=O)NCc1nc(-c2ccc([N+](=O)[O-])o2)no1` was run?
**A.** 20.62 µmol/kg

**Q.** And the pTD50?
**A.** 1.314

**Q.** What does the source list for `CC(C)[N+](=O)[O-]`?
**A.** TD50: 3288.692 µmol/kg; pTD50: 3.517

**Q.** What does the source list for `CN(C)C/N=c1\[nH]nc(/C=C/c2ccc([N+](=O)[O-])o2)o1`?
**A.** TD50: 73.052 µmol/kg; pTD50: 1.864

**Q.** Which results are given for `NNc1nc(-c2ccc([N+](=O)[O-])o2)cs1`?
**A.** TD50: 12.51 µmol/kg; pTD50: 1.097

**Q.** How did the TD50 turn out when `CN(C)Nc1nc(-c2ccc([N+](=O)[O-])o2)cs1` was run?
**A.** 1.538 µmol/kg

**Q.** And the pTD50?
**A.** 0.187

**Q.** How did the TD50 turn out when `Nc1nc(N)nc(-c2ccc([N+](=O)[O-])o2)n1` was run?
**A.** 7.697 µmol/kg

**Q.** And the pTD50?
**A.** 0.886

**Q.** Which results are given for `CC(=O)OC(OC(C)=O)c1ccc([N+](=O)[O-])o1`?
**A.** TD50: 431.796 µmol/kg; pTD50: 2.635

**Q.** How did the TD50 turn out when `O=[N+]([O-])c1ccc(-c2nc(NCCO)c3ccccc3n2)s1` was run?
**A.** 12.139 µmol/kg

**Q.** And the pTD50?
**A.** 1.084

**Q.** `COc1c(Cl)c(Cl)c([N+](=O)[O-])c(Cl)c1Cl` was tested. Which TD50 did it give?
**A.** 65.65 µmol/kg

**Q.** And the pTD50?
**A.** 1.82

**Q.** What does the source list for `O=C(Nc1nc(-c2ccc([N+](=O)[O-])o2)cs1)C(F)(F)F`?
**A.** TD50: 18.164 µmol/kg; pTD50: 1.259

**Q.** For `Nc1ncc([N+](=O)[O-])s1`, which TD50 is on record?
**A.** 223.922 µmol/kg

**Q.** What about the pTD50 of the same compound?
**A.** 2.35

**Q.** `O=[N+]([O-])c1ccc2c3c(cccc13)CC2` was tested. Which TD50 did it give?
**A.** 30.02 µmol/kg

**Q.** And the pTD50?
**A.** 1.48

**Q.** For `Nc1nnc(-c2ccc([N+](=O)[O-])o2)o1`, which TD50 is on record?
**A.** 13.971 µmol/kg

**Q.** And the pTD50?
**A.** 1.145

**Q.** How did the TD50 turn out when `Cl.O=C1OC(CN2CCOCC2)CN1/N=C/c1ccc([N+](=O)[O-])o1` (stereo not drawn) was run?
**A.** 8.665 µmol/kg

**Q.** And the pTD50?
**A.** 0.938

**Q.** For `NNc1nc(-c2ccc([N+](=O)[O-])cc2)cs1`, which TD50 is on record?
**A.** 3.145 µmol/kg

**Q.** What about the pTD50 of the same compound?
**A.** 0.498

**Q.** What does the source list for `O=CNc1nc(-c2ccc([N+](=O)[O-])o2)cs1`?
**A.** TD50: 21.195 µmol/kg; pTD50: 1.326

**Q.** `N/C(=N\O)c1ccc([N+](=O)[O-])o1` was tested. Which TD50 did it give?
**A.** 245.455 µmol/kg

**Q.** And the pTD50?
**A.** 2.39

**Q.** For `O=[N+]([O-])c1ccc2ccc3cccc4ccc1c2c34` [1-NITROPYRENE], which TD50 is on record?
**A.** 13.468 µmol/kg

**Q.** What about the pTD50 of the same compound?
**A.** 1.129

**Q.** What does the source list for `COc1ccccc1[N+](=O)[O-]` [2-NITROANISOLE]?
**A.** TD50: 69.87 µmol/kg; pTD50: 1.84

**Q.** What does the source list for `Nc1ccc([N+](=O)[O-])cc1` [4-NITROANILINE]?
**A.** TD50: 65.521 µmol/kg; pTD50: 1.816

**Q.** Which TD50 does the source give for `Cn1cnc([N+](=O)[O-])c1Sc1ncnc2[nH]cnc12` [AZATHIOPRINE] here?
**A.** 36.428 µmol/kg

**Q.** And the pTD50?
**A.** 1.561

**Q.** With `O=C(N[C@H](CO)[C@H](O)c1ccc([N+](=O)[O-])cc1)C(Cl)Cl` [CHLORAMPHENICOL] as the compound, how does the TD50 read?
**A.** 860.336 µmol/kg

**Q.** What about the pTD50 of the same compound?
**A.** 2.935

**Q.** `Cc1ncc([N+](=O)[O-])n1C` [DIMETRIDAZOLE] was tested. Which TD50 did it give?
**A.** 120.458 µmol/kg

**Q.** What about the pTD50 of the same compound?
**A.** 2.081

**Q.** What does the source list for `CNc1ccc(N(CCO)CCO)cc1[N+](=O)[O-]` [HC BLUE NO. 1]?
**A.** TD50: 1680.55 µmol/kg; pTD50: 3.23

**Q.** `Cc1ncc([N+](=O)[O-])n1CCO` [METRONIDAZOLE] was tested. Which TD50 did it give?
**A.** 356.989 µmol/kg

**Q.** And the pTD50?
**A.** 2.553

**Q.** `O=C1NCCN1/N=C/c1ccc([N+](=O)[O-])o1` [NIFURADENE] was tested. Which TD50 did it give?
**A.** 23.646 µmol/kg

**Q.** What about the pTD50 of the same compound?
**A.** 1.37

**Q.** For `CC1CN(/N=C/c2ccc([N+](=O)[O-])o2)C(=O)N1` (stereo not drawn) [NIFURIMIDE], which TD50 is on record?
**A.** 22.418 µmol/kg

**Q.** What about the pTD50 of the same compound?
**A.** 1.351

**Q.** `O=CNNc1nc(-c2ccc([N+](=O)[O-])o2)cs1` [NIFURTHIAZOLE] was tested. Which TD50 did it give?
**A.** 13.925 µmol/kg

**Q.** What about the pTD50 of the same compound?
**A.** 1.144

**Q.** Which results are given for `CCNC(=O)Nc1ncc([N+](=O)[O-])s1` [NITHIAZIDE]?
**A.** TD50: 605.88 µmol/kg; pTD50: 2.78

**Q.** Which TD50 does the source give for `O=[N+]([O-])c1ccccc1` [NITROBENZENE] here?
**A.** 47.681 µmol/kg

**Q.** And the pTD50?
**A.** 1.678

**Q.** What does the source list for `CC[N+](=O)[O-]` [NITROETHANE]?
**A.** TD50: 29174.093 µmol/kg; pTD50: 4.465

**Q.** How did the TD50 turn out when `O=C1CN(/N=C/c2ccc([N+](=O)[O-])o2)C(=O)N1` [NITROFURANTOIN] was run?
**A.** 228.001 µmol/kg

**Q.** What about the pTD50 of the same compound?
**A.** 2.358

**Q.** Which results are given for `NC(=O)N/N=C/c1ccc([N+](=O)[O-])o1` [NITROFURAZONE]?
**A.** TD50: 32.907 µmol/kg; pTD50: 1.517

**Q.** Which TD50 does the source give for `O=[N+]([O-])OCC(CO[N+](=O)[O-])O[N+](=O)[O-]` [NITROGLYCERIN] here?
**A.** 1448.787 µmol/kg

**Q.** What about the pTD50 of the same compound?
**A.** 3.161

**Q.** Which TD50 does the source give for `CCCN(CCC)c1c([N+](=O)[O-])cc(C(F)(F)F)cc1[N+](=O)[O-]` [TRIFLURALIN] here?
**A.** 17567.456 µmol/kg

**Q.** What about the pTD50 of the same compound?
**A.** 4.245
